Experimental data as given in the supplement of paper PMC6045584.
± gives the standard deviation of the averaged measurements.

Columns and labels:
[1] = compound: CC(=O)NCC(=O)N1[C@@H]2CC[C@H]1c1ccc(Nc3ncc(C(F)(F)F)c(NC4CCC4)n3)cc12; test: surviving fraction relative to DMSO-only wells; higher = less growth inhibition; conditions: exposure time: 5 days
Method in brief: (§1)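 Surviving fraction was calculated by normalising CellTiter-Glo luminescence to the median of DMSO-only wells. Tumour cell lines in log phase were seeded in 384-well plates at 250–500 cells per well, and 24 hours later were exposed continuously for five days to inhibitors at 0.5, 1, 5, 10, 50, 100, 500 and 1000 nM.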

[2] = compound: T1, CC(=O)O[C@H]1C(=O)[C@@]2(C)[C@H]([C@H](OC(=O)c3ccccc3)[C@]3(O)C[C@H](OC(=O)[C@H](O)[C@@H](NC(=O)c4ccccc4)c4ccccc4)C(C)=C1C3(C)C)[C@]1(OC(C)=O)CO[C@@H]1C[C@@H]2O [PACLITAXEL]; test: as above; conditions: exposure time: 5 days
Method in brief: as §1

[3] = compound: CC(=O)c1c(C)c2cnc(Nc3ccc(N4CCNCC4)cn3)nc2n(C2CCCC2)c1=O; test: as above; conditions: exposure time: 5 days
Method in brief: as §1

[4] = compound: T2, CC[C@@]1(O)C(=O)OCc2c1cc1n(c2=O)Cc2cc3ccccc3nc2-1 [CAMPTOTHECIN]; test: as above; conditions: exposure time: 5 days
Method in brief: as §1

[5] = compound: T3, COCC[n+]1c2c(n(Cc3cnccn3)c1C)C(=O)c1ccccc1C2=O [YM155]; test: as above; conditions: exposure time: 5 days
Method in brief: as §1

[6] = compound: T4, COc1cc2ncnc(Nc3ccc(F)c(Cl)c3)c2cc1OCCCN1CCOCC1 [GEFITINIB]; test: as above; conditions: exposure time: 5 days
Method in brief: as §1

[7] = compound: T5, C[C@]1(O)C[C@@H](c2nc(-c3ccc4ccc(-c5ccccc5)nc4c3)c3c(N)nccn32)C1 [OSI-906]; test: as above; conditions: exposure time: 5 days
Method in brief: as §1

[8] = compound: Cc1ccc(-c2cc(C(F)(F)F)nn2-c2ccc(S(N)(=O)=O)cc2)cc1 [CELECOXIB]; test: as above; conditions: exposure time: 5 days
Method in brief: as §1

[9] = compound: O=C(O)C1(C(=O)O)CCC1.[NH2-].[NH2-].[Pt+2] [CARBOPLATIN]; test: as above; conditions: exposure time: 5 days
Method in brief: as §1

[10] = compound: CC(=O)NCC(=O)N1[C@@H]2CC[C@H]1c1ccc(Nc3ncc(C(F)(F)F)c(NC4CCC4)n3)cc12; test: area under dose-response curve of surviving fraction (unscaled, Aref=0) (surviving fraction x log10(nM)); higher = more resistant; conditions: exposure time: 5 days; dose range 0.5-1000 nM
Method in brief: (§2)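 Surviving fractions were fitted by 3-parameter logistic regression in the drc R package to give dose-response survival curves. They came from tumour cell lines treated for five days with eight inhibitor concentrations from 0.5 to 1000 nM and read by CellTiter-Glo luminescence against DMSO-only wells. The area under the curve is the unscaled activity area. It was calculated over log10 dose with Aref = 0.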

[11] = compound: T1, PACLITAXEL; test: as above; conditions: exposure time: 5 days; dose range 0.5-1000 nM
Method in brief: as §2

[12] = compound: CC(=O)c1c(C)c2cnc(Nc3ccc(N4CCNCC4)cn3)nc2n(C2CCCC2)c1=O; test: as above; conditions: exposure time: 5 days; dose range 0.5-1000 nM
Method in brief: as §2

[13] = compound: T2, CAMPTOTHECIN; test: as above; conditions: exposure time: 5 days; dose range 0.5-1000 nM
Method in brief: as §2

[14] = compound: T3, YM155; test: as above; conditions: exposure time: 5 days; dose range 0.5-1000 nM
Method in brief: as §2

[15] = compound: T4, GEFITINIB; test: as above; conditions: exposure time: 5 days; dose range 0.5-1000 nM
Method in brief: as §2

[16] = compound: T5, OSI-906; test: as above; conditions: exposure time: 5 days; dose range 0.5-1000 nM
Method in brief: as §2

MDAMB157 BREAST
surviving fraction ([1]; 0.5 nM): 0.954 ± 0.082
surviving fraction ([1]; 1 nM): 0.854 ± 0.042
surviving fraction ([1]; 5 nM): 0.858 ± 0.081
surviving fraction ([1]; 10 nM): 0.895 ± 0.064
surviving fraction ([1]; 50 nM): 0.79 ± 0.11
surviving fraction ([1]; 100 nM): 0.498 ± 0.068
surviving fraction ([1]; 500 nM): 0.431 ± 0.077
surviving fraction ([1]; 1000 nM): 0.216 ± 0.041
surviving fraction ([2]; 0.5 nM): 0.867 ± 0.075
surviving fraction ([2]; 1 nM): 0.674 ± 0.019
surviving fraction ([2]; 5 nM): 0.144 ± 0.022
surviving fraction ([2]; 10 nM): 0.105 ± 0.019
surviving fraction ([2]; 50 nM): 0.0473 ± 0.016
surviving fraction ([2]; 100 nM): 0.0687 ± 0.028
surviving fraction ([2]; 500 nM): 0.0473 ± 0.0098
surviving fraction ([2]; 1000 nM): 0.069 ± 0.011
surviving fraction ([3]; 0.5 nM): 0.929 ± 0.05
surviving fraction ([3]; 1 nM): 0.884 ± 0.027
surviving fraction ([3]; 5 nM): 0.974 ± 0.042
surviving fraction ([3]; 10 nM): 0.973 ± 0.053
surviving fraction ([3]; 50 nM): 1.03 ± 0.12
surviving fraction ([3]; 100 nM): 1.01 ± 0.13
surviving fraction ([3]; 500 nM): 1 ± 0.12
surviving fraction ([3]; 1000 nM): 0.902 ± 0.061
surviving fraction ([4]; 0.5 nM): 0.857 ± 0.063
surviving fraction ([4]; 1 nM): 0.911 ± 0.034
surviving fraction ([4]; 5 nM): 0.674 ± 0.061
surviving fraction ([4]; 10 nM): 0.319 ± 0.058
surviving fraction ([4]; 50 nM): 0.26 ± 0.0076
surviving fraction ([4]; 100 nM): 0.247 ± 0.019
surviving fraction ([4]; 500 nM): 0.135 ± 0.0051
surviving fraction ([4]; 1000 nM): 0.118 ± 0.014
surviving fraction ([5]; 0.5 nM): 0.958 ± 0.024
surviving fraction ([5]; 1 nM): 1.02 ± 0.092
surviving fraction ([5]; 5 nM): 0.77 ± 0.037
surviving fraction ([5]; 10 nM): 0.799 ± 0.039
surviving fraction ([5]; 50 nM): 0.0573 ± 0.024
surviving fraction ([5]; 100 nM): 0.031 ± 0.003
surviving fraction ([5]; 500 nM): 0.0297 ± 0.0047
surviving fraction ([5]; 1000 nM): 0.039 ± 0.0046
surviving fraction ([6]; 0.5 nM): 1.04 ± 0.033
surviving fraction ([6]; 1 nM): 0.968 ± 0.067
surviving fraction ([6]; 5 nM): 0.92 ± 0.057
surviving fraction ([6]; 10 nM): 1.01 ± 0.059
surviving fraction ([6]; 50 nM): 0.911 ± 0.1
surviving fraction ([6]; 100 nM): 1.02 ± 0.053
surviving fraction ([6]; 500 nM): 0.991 ± 0.026
surviving fraction ([6]; 1000 nM): 0.864 ± 0.066
surviving fraction ([7]; 0.5 nM): 0.892 ± 0.048
surviving fraction ([7]; 1 nM): 0.875 ± 0.11
surviving fraction ([7]; 5 nM): 0.949 ± 0.058
surviving fraction ([7]; 10 nM): 0.946 ± 0.079
surviving fraction ([7]; 50 nM): 0.957 ± 0.11
surviving fraction ([7]; 100 nM): 0.855 ± 0.056
surviving fraction ([7]; 500 nM): 0.872 ± 0.037
surviving fraction ([7]; 1000 nM): 0.884 ± 0.086
surviving fraction ([8]; 0.5 nM): 0.92 ± 0.089
surviving fraction ([8]; 1 nM): 0.989 ± 0.093
surviving fraction ([8]; 5 nM): 0.993 ± 0.048
surviving fraction ([8]; 10 nM): 0.967 ± 0.045
surviving fraction ([8]; 50 nM): 1 ± 0.16
surviving fraction ([8]; 100 nM): 0.991 ± 0.04
surviving fraction ([8]; 500 nM): 0.984 ± 0.025
surviving fraction ([8]; 1000 nM): 0.945 ± 0.07
surviving fraction ([9]; 0.5 nM): 1.04 ± 0.1
surviving fraction ([9]; 1 nM): 0.881 ± 0.024
surviving fraction ([9]; 5 nM): 1.02 ± 0.11
surviving fraction ([9]; 10 nM): 1.04 ± 0.066
surviving fraction ([9]; 50 nM): 1.06 ± 0.12
surviving fraction ([9]; 100 nM): 0.957 ± 0.056
surviving fraction ([9]; 500 nM): 0.949 ± 0.084
surviving fraction ([9]; 1000 nM): 0.943 ± 0.13
area under dose-response curve [10]: 2.36
area under dose-response curve [11]: 0.654
area under dose-response curve [12]: 3.21
area under dose-response curve [13]: 1.4
area under dose-response curve [14]: 1.53
area under dose-response curve [15]: 3.2
area under dose-response curve [16]: 2.98
